Assays:
[1] = Hepatic extraction ratio in human liver microsomes at 1 uM up to 60 mins by LC-MS analysis; type: ADME; conditions: read-out: ERH
Plasmodium falciparum [2] = test: microbe, parasite or virus in culture; conditions: K1
Description: Antimalarial activity against multidrug-resistant Plasmodium falciparum K1

physchem = conditions: 0.01 M HCl, pH 2
Description: Solubility of the compound in 0.01M HCl at pH 2

Plasmodium falciparum [3] = test: microbe, parasite or virus in culture; conditions: NF54
Description: Antimalarial activity against drug-sensitive Plasmodium falciparum NF54

SMILES | hepatic extraction ratio at 1 h, 1 µM [1] | IC50 (Plasmodium falciparum [2]) [nM] | solubility (physchem) [µg/mL] | IC50 (Plasmodium falciparum [3]) [nM]
COc1ccc(-c2ccc3ncc(-c4ccncc4)n3n2)cc1OC | 0.86 | 14 | > 100 | 16
CS(=O)(=O)Nc1cccc(-c2ccc3ncc(-c4ccncc4)n3n2)c1 | 0.82 | 15 | > 100 | 16
COc1ccc(-c2cnc3ccc(-c4cccnc4)nn23)cc1OC | 0.92 | 23.5 |  | 25.9
CS(=O)(=O)c1cccc(-c2ccc3ncc(-c4ccncc4)n3n2)c1 |  | 28 | > 100 | 46
CC(C)(C)OC(=O)NCc1cccc(-c2ccc3ncc(-c4ccncc4)n3n2)c1 |  | 97 | > 100 | 95
FC(F)(F)Oc1cccc(-c2ccc3ncc(-c4ccncc4)n3n2)c1 |  | 118 | > 100 | 146
CC(C)(C)c1cccc(-c2ccc3ncc(-c4ccncc4)n3n2)c1 |  | 122 | > 100 | 137
Fc1ccc(-c2ccc3ncc(-c4ccncc4)n3n2)cc1 |  | 138 | > 100 | 186
Clc1cccc(-c2ccc3ncc(-c4ccncc4)n3n2)c1 |  | 183 | > 100 | 202
c1cc(-c2ccc3ncc(-c4ccncc4)n3n2)c2ccncc2c1 |  | 192 | > 100 | 223
Fc1cccc(-c2ccc3ncc(-c4ccncc4)n3n2)c1 |  | 203 | > 100 | 272
c1cc(-c2ccc3ncc(-c4ccncc4)n3n2)cc(N2CCOCC2)c1 |  | 246 | > 100 | 283
Fc1ccc(-c2ccc3ncc(-c4ccncc4)n3n2)cc1F |  | 415 | > 100 | 496
COc1ccc(-c2ccc3ncc(-c4ccncc4)n3n2)cn1 |  | 412 | > 100 | 603
NCc1ccc(-c2ccc3ncc(-c4ccncc4)n3n2)cc1 |  | 491 | > 100 | 335
NCc1cccc(-c2ccc3ncc(-c4ccncc4)n3n2)c1 |  | 588 | > 100 | 289
FC(F)(F)c1ccc(-c2ccc3ncc(-c4ccncc4)n3n2)cn1 |  | 873 | > 100 | 964
FC(F)(F)Oc1ccc(-c2ccc3ncc(-c4ccncc4)n3n2)cc1 |  | 980 | > 100 | 1060
CN1CCN(S(=O)(=O)c2ccc(-c3ccc4ncc(-c5ccncc5)n4n3)cc2)CC1 |  | 1250 | > 100 | 739
CC(C)(C)c1ccc(-c2ccc3ncc(-c4ccncc4)n3n2)cc1 |  | 1420 | > 100 | 1880
O=S(=O)(c1ccc(-c2ccc3ncc(-c4ccncc4)n3n2)cc1)N1CCOCC1 |  | 1490 | > 100 | 2240
CC(C)(C)OC(=O)NCc1ccc(-c2ccc3ncc(-c4ccncc4)n3n2)cc1 |  | 1610 | > 100 | 1630
c1cnc2c(-c3ccc4ncc(-c5ccncc5)n4n3)cccc2c1 |  | 1670 | > 100 | 2150
c1cc(-c2cnc3ccc(-c4ccc(N5CCOCC5)cc4)nn23)ccn1 |  | > 2800 | > 100 | > 2800
CS(=O)(=O)c1ccc(-c2ccc3ncc(-c4ccncc4)n3n2)cc1 |  | > 2850 | > 100 | > 2850
C1=C(c2ccc3ncc(-c4ccncc4)n3n2)Cc2nonc2C1 |  | > 3180 | > 100 | > 3180

SMILES | hepatic extraction ratio at 1 h, 1 µM [1] | IC50 (Plasmodium falciparum [2]) [nM] | solubility (physchem) [µg/mL] | IC50 (Plasmodium falciparum [3]) [nM]
CS(=O)(=O)c1ccc(-c2cnc3ccc(-c4cccc(S(=O)(=O)NC5CC5)c4)nn23)cc1 |  | 0.58 | > 100 | 0.66
CS(=O)(=O)c1ccc(-c2cnc3ccc(-c4cccc(S(=O)(=O)NCc5ccccc5)c4)nn23)cc1 |  | 3.3 | > 100 | 3.5
CS(=O)(=O)c1ccc(-c2cnc3ccc(-c4cccc(C(=O)N5CCCCC5)c4)nn23)cc1 |  | 7.2 | > 100 | 6.5
CS(=O)(=O)c1ccc(-c2cnc3ccc(-c4cccc(C(=O)NS(=O)(=O)C5CC5)c4)nn23)cc1 |  | 11 | > 100 | 14
CS(=O)(=O)Nc1cccc(-c2ccc3ncc(-c4ccc(S(C)(=O)=O)cc4)n3n2)c1 |  | 19 | > 100 | 19
CS(=O)(=O)c1ccc(-c2cnc3ccc(-c4cccc(C(F)(F)F)c4)nn23)cc1 |  | 55 | > 100 | 79
CS(=O)(=O)c1ccc(-c2cnc3ccc(-c4cccc(C(N)=O)c4)nn23)cc1 |  | 99 | > 100 | 102
CS(=O)(=O)c1ccc(-c2cnc3ccc(-c4cccc(C#N)c4)nn23)cc1 |  | 96 | > 100 | 107
CN(C)c1cccc(-c2ccc3ncc(-c4ccc(S(C)(=O)=O)cc4)n3n2)c1 |  | 107 | > 100 | 117
CS(=O)(=O)c1ccc(-c2cnc3ccc(-c4ccc(C(F)(F)F)cc4)nn23)cc1 |  | 134 | > 100 | 189
CS(=O)(=O)c1ccc(-c2cnc3ccc(-c4ccc(C(=O)NC5CCCC5)cc4)nn23)cc1 |  | 146 | > 100 | 154
CS(=O)(=O)c1ccc(-c2cnc3ccc(-c4ccc(F)c(Cl)c4)nn23)cc1 |  | 152 | > 100 | 179
CC(C)(C)NC(=O)c1ccc(F)c(-c2ccc3ncc(-c4ccc(S(C)(=O)=O)cc4)n3n2)c1 |  | 155 | > 100 | 159
CS(=O)(=O)c1ccc(-c2cnc3ccc(-c4ccc(C(F)(F)F)c(F)c4)nn23)cc1 |  | 315 | > 100 | 393
CS(=O)(=O)c1ccc(-c2cnc3ccc(-c4ccc(C(F)(F)F)nc4)nn23)cc1 |  | 633 | > 100 | 763
CS(=O)(=O)c1ccc(-c2ccc3ncc(-c4ccc(S(C)(=O)=O)cc4)n3n2)cc1 |  | 753 | > 100 | 706
CS(=O)(=O)c1ccc(-c2cnc3ccc(-c4cc(C(=O)NC5CCCCC5)ccc4F)nn23)cc1 |  | > 2030 | > 100 | > 2030
c1cncc(-c2ccc3ncc(-c4cccnc4)n3n2)c1 |  | 1070 | > 100 | 1270
CS(=O)(=O)c1ccc(-c2ccc3ncc(-c4cccnc4)n3n2)cc1 |  | > 2850 | > 100 | > 2850
CS(=O)(=O)Nc1cccc(-c2ccc3ncc(-c4cncnc4)n3n2)c1 | 0.75 | 76 | > 100 | 93
CS(=O)(=O)Nc1cccc(-c2ccc3ncc(-c4ccc([S+](N)[O-])cc4)n3n2)c1 (centres undefined) | 0.42 | 20 | > 100 | 18
N[S+]([O-])c1ccc(-c2ccc3ncc(-c4ccc([S+](N)[O-])cc4)n3n2)cc1 (centres undefined) |  | > 2330 | > 100 | > 2330
CN(C)S(=O)(=O)c1ccc(-c2ccc3ncc(-c4ccc(S(=O)(=O)N(C)C)cc4)n3n2)cc1 |  | > 2060 | > 100 | > 2060
CS(=O)(=O)c1ccc(-c2ccc3ncc(-c4ccc(C(F)(F)F)cc4)n3n2)cc1 | < 0.28 | 668 | > 100 | 764
O=C(c1ccc(-c2ccc3ncc(-c4ccc(C(F)(F)F)cc4)n3n2)cc1)N1CCOCC1 | 0.59 | 732 | > 100 | 763

— ChEMBL document CHEMBL3232977, “Medicinal chemistry optimization of antiplasmodial imidazopyridazine hits from high throughput screening of a SoftFocus kinase library: part 1” (J Med Chem, 2014)
